The test system of one assay is A549. The experiment in a line: Antiproliferative activity against human A549 cells by MTT assay. In kind it is functional, cell-based. (In general: Tetrazolium dyes change colour on reduction, which living cells bring about.)
Another assay has as its system NCI-H292. The experiment in a line: Antiproliferative activity against human NCI-H292 cells by MTT assay. It is filed as functional, cell-based.

As to `CC1(C)CCC[C@]2(C)[C@H]3C[C@H]4C(CO)=CCO[C@@H]4[C@H]3C[C@H](O)[C@@H]12`, the values for the IC50 in the assay on A549 and in the assay on NCI-H292 were 25.2 µM and 19.1 µM, respectively.

For the compound `C=C1CC[C@@H]2[C@](C)(CCC[C@]2(C)C(=O)O)[C@H]1CC/C(C)=C/C(=O)O` [AGATHIC ACID], the results for the IC50 in the assay with A549 and in the assay on NCI-H292 were 47.8 µM and 20.3 µM, respectively.

As to `CCC(C)C1NC(=O)C(NC(=O)/C=C/c2ccccc2)C(C(C)C)Oc2ccc(cc2)/C=C/NC1=O` (stereo unspecified), the half-inhibitory concentration (IC50) (usually the concentration at which inhibition is half-maximal) in the assay on A549 is 21.5 µM; with NCI-H292, 17.8 µM.
